# Experiments:
# [1] = molecular target: T1, Mcl-1/Bim interaction, recombinant human Mcl-1 (171-327) (Homo sapiens, UniProt Q07820); test: Cell free Mcl-1: Bim Affinity Assay (Mcl-1 HTRF); assay type: binding
# T1 construct: made in house
# Procedure, shortened: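 Biotin-Bim(51-76) peptide, TR-FRET readout, overnight incubation; IC50 from duplicate competition curves, 4-parameter fit.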
# [2] = tested on: OPM-2 human multiple myeloma cell line; test: Cell Viability Assay (OPM-2 10 FBS); assay type: cell-based; details: OPM-2 cells, 16 h, CellTiter-Glo
# Procedure, shortened: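 ATP-based luminescence (CellTiter-Glo) measured after a 16 h compound treatment of OPM-2 cells seeded at 3000 cells/well in 10% FBS medium. IC50 values derived by 4-parameter logistic fitting of serial dilutions.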
# [3] = TR-FRET, 0.1 nM Mcl-1 (171-327), 0.05 nM biotin-Bim (51-76)
# [4] = cell free Mcl-1:Bim TR-FRET, recombinant human Mcl-1 (171-327)
# T1 sequence (Q07820 171-327): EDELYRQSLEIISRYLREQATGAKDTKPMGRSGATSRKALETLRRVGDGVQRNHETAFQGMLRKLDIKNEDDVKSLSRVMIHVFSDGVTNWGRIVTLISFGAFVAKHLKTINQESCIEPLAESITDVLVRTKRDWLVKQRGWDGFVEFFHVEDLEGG
Compound,"IC50 [1, 3] [nM]","IC50 ([2]; Homo sapiens, OPM-2, 16 h) [nM]","IC50 [1, 4] [nM]",IC50 [2] [nM]
"C[C@@H]1CC/C=C/[C@H](OCc2ncn(C)n2)[C@@H]2CC[C@H]2CN2C[C@@]3(CCCc4cc(Cl)ccc43)COc3ccc(cc32)C(=O)NS1(=O)=O [Example 410, (1S,3′R,6′R,7′S,8′E,12′R)-6-chloro-12′-methyl-7′-((l-methyl-1H-1,2,4-triazol-3-yl)methoxy)-3,4-dihydro-2H,15′H-spiro[naphthalene-1,22′-[20]oxa[13]thia[1,14]diazatetracyclo[14.7.2.0^3,6.0^19,24]pentacosa [8,16,18,24]tetraen]-15′-one 13′,13′-dioxide]",0.144,208,,
"CC[C@@H]1CC/C=C/[C@H](OCc2ncn(C)n2)[C@@H]2CC[C@H]2CN2C[C@@]3(CCCc4cc(Cl)ccc43)COc3ccc(cc32)C(=O)NS1(=O)=O [Example 423, (1S,3′R,6′R,7′S,8′E,12′R)-6-chloro-12′-ethyl-7′-((1-methyl-1H-1,2,4-triazol-3-yl)methoxy)-3,4-dihydro-2H,15′H-spiro[naphthalene-1,22′-[20]oxa[13]thia[1,14]diazatetracyclo[14.7.2.0^3,6.0^19,24]pentacosa [8,16,18,24]tetraen]-15′-one 13′,13′-dioxide]",0.249,198,,
"C[C@@H]1CS(=O)(=O)NC(=O)c2ccc3c(c2)N(C[C@@H]2CC[C@H]2[C@@H]2C[C@H](CCO2)O1)C[C@@]1(CCCc2cc(Cl)ccc21)CO3 (single isomer, unassigned) [Example 922]",,,0.975,2400
"C[C@@H]1[C@@H](C)C/C=C/[C@H](OCC(=O)N2CC(F)(F)C2)[C@@H]2CC[C@H]2CN2C[C@@]3(CCCc4cc(Cl)ccc43)COc3ccc(cc32)C(=O)NS1(=O)=O [Example 308, (1S,3′R,6′R,7′S,8′E,11′S,12′R)-6-chloro-7′-(2-(3,3-difluoro-1-azetidinyl)-2-oxoethoxy)-11′,12′-dimethyl-3,4-dihydro-2H,15′H-spiro[naphthalene-1,22′-[20]oxa[13]thia[1,14]diazatetracyclo[14.7.2.0^3,6.0^19,24]pentacosa [8,16,18,24]tetraen]-15′-one 13′,13′-dioxide]",0.382,214,,
"COC1C=CCC(OC)C(CC2CCCO2)S(=O)(=O)NC(=O)c2ccc3c(c2)N(CC2CCC21)CC1(CCCc2cc(Cl)ccc21)CO3 (single isomer, unassigned) [Example 641]",,282,0.537,
"C[C@@H]1[C@@H](C)C/C=C/[C@H](OCC(=O)NC2COC2)[C@@H]2CC[C@H]2CN2C[C@@]3(CCCc4cc(Cl)ccc43)COc3ccc(cc32)C(=O)NS1(=O)=O [Example 303, 2-(((1S,3′R,6′R,7′S,8′E,11′S,12′R)-6-chloro-11′,12′-dimethyl-13′,13′-dioxido-15′-oxo-3,4-dihydro-2H-spiro[naphthalene-1,22′-[20]oxa[13]thia[1,14]diazatetracyclo[14.7.2.0^3,6.0^19,24]pentacosa [8,16,18,24]tetraen]-7′-yl)oxy)-N-3-oxetanylacetamide]",0.2,567,,
CCOC(=O)CO[C@H]1/C=C/CC[C@@H](CC(=O)OC)S(=O)(=O)NC(=O)c2ccc3c(c2)N(C[C@@H]2CC[C@H]21)C[C@@]1(CCCc2cc(Cl)ccc21)CO3 [Example 623],,,0.642,483
"CC(=O)O[C@H]1/C=C/C[C@H]2CCCN2S(=O)(=O)NC(=O)c2ccc3c(c2)N(C[C@@H]2CC[C@H]21)C[C@@]1(CCCc2cc(Cl)ccc21)CO3 (single isomer, unassigned) [Example 348]",6.86,3560,,
"C=C1[C@@H](C)C/C=C/[C@H](O)[C@@H]2CC[C@H]2CN2C[C@@]3(CCCc4cc(Cl)ccc43)COc3ccc(cc32)C(=O)NS1(=O)=O (single isomer, unassigned) [Example 468]",0.299,262,,
